Experimental data from US20130072517A1 (Avanir Pharmaceuticals, Inc., priority 2002, published 2013).

What was measured:
Format in all cases: in vivo, human
[1] = Clinical Study #4: concentrations of DM, DX and Q in plasma on Day 29; settings: blood collection within 8 hours of last dose
Method: Values were obtained for systolic and diastolic blood pressure, heart rate, and respiration rate on the screening visit and all other study visits. All values outside the pre-defined ranges were flagged in the subject data listings. Electrocardiography (twelve lead) was used to obtain ventricular rate (VR), QT, Q-Tc intervals, […] (PR), and QRS duration. A blood sample (10 mL whole blood) was taken from each subject at the Screening Visit for CYP2D6 genotyping to determine which subjects were poor metabolizers of DM and which were extensive metabolizers. Blood samples were taken on Day 29 for the determination of concentrations of DM, DX, and Q in plasma. The relationship between the concentration of drug in plasma and changes in CNS-LS scores was determined, and the effect of the CYP2D6 genotype on this relationship was evaluated.
Q in this combination product inhibits the rapid first-pass metabolism of DM.

[2] = system: ALS subjects with pseudobulbar affect; assay: Clinical Study #4: CNS-LS score (primary efficacy); settings: for Difference vs 30DM/30Q, mean difference in the CNS-LS reduction: controlling for baseline CNS-LS and study site
Text: This was a multicenter, randomized, double-blind, controlled, parallel-group study. All study drugs were self-administered orally every twelve hours for twenty-eight days. The study included a screening visit and three other clinic visits on Days 1, 15, and 29. Day 29 was the last day the subject was on study and could occur anywhere between the morning of Day 26 and the morning of Day 32.
Subjects with clinically diagnosed pseudobulbar affect were screened for general health within four weeks before entry into the study. All eligible subjects had attained a score of 13 or above on the Center for Neurologic Study-Lability Scale (CNS-LS) at the clinic visit on Day 1.
(§1) Diary cards were collected on Day 15 and at the time of study completion.
Subjects completed the CNS-LS questionnaire and visual analog scales assessing quality of life (QOL) and quality of relationships (QOR) every two weeks (Days 1, 15, and 29) during the treatment period. A clinical psychologist, or other approved clinician, administered the Hamilton Rating Scale for Depression (HRSD) at the Screening Visit and on Day 29. Safety was evaluated on Day 15 and Day 29 by examining adverse events, results of physical examinations, vital signs, clinical laboratory values, and resting electrocardiograms (ECGs). In addition to blood samples taken to provide clinical laboratory data, blood was also taken for pharmacokinetic analysis and CYP2D6 genotyping. Each subject completed a diary in which the number of episodes experienced, medications taken, and any adverse events were recorded daily.
(§2) The primary efficacy variable was the CNS-LS score. All efficacy variables involving a change were determined by the baseline score being subtracted from the mean of the non-missing scores on Days 15 and 29. The secondary efficacy variables were laughing/crying episodes, QOL scores, and QOR scores. […]
The CNS-LS questionnaire used to assess primary efficacy is a seven-item self-report measure that provides a score for total pseudobulbar affect; it required approximately five minutes for the subject to complete. The range of possible scores was 7 to 35. […] This questionnaire is the only instrument for the measurement of pseudobulbar affect validated for use with ALS subjects.
The primary efficacy analysis was the change from baseline in CNS-LS scores, adjusted for center and baseline CNS-LS score. The descriptive statistics for the ITT Population are in Table 29.
These distributions have not been adjusted for baseline scores or for study site. […] As prospectively specified in the protocol, the differences in mean improvement in CNS-LS scores, adjusted for center and baseline CNS-LS scores, were analyzed by using linear regression according to the ANCOVA method of Frison and Pocock.

[3] = Clinical Study #5: concentrations in plasma of DM, DX and Q and correlation with pain intensity; settings: final visit; for Concentration in plasma, Mean / Concentration in plasma, Median: extensive metabolizers
Method: Subjects visited the clinic every two weeks during the four-week duration of the study and were contacted by telephone during weeks without clinic visits. At each subsequent study visit or weekly phone call, the subjects were given the Pain Intensity Rating Scale and the Pain Relief Rating Scale and were queried regarding any adverse events that might have occurred since their previous visit. Subjects were administered the Peripheral Neuropathy Quality of Life (QOL) Instrument on Days 1 and 29 (or the final visit). Blood samples were taken at the visits on Day 15 and Day 29 to determine concentrations in plasma of DM, DX, and Q.

[4] = system: ALS subjects with pseudobulbar affect; assay: Clinical Study #4: laughing/crying episode counts (diary)
Method: as §1, §2
Secondary efficacy was assessed by using two, 10-cm visual analog scales (VAS). One scale asked subjects to rate how much uncontrollable laughter, tearfulness, or anger had affected the overall quality of their life during the past week, and one scale asked subjects to rate how much uncontrollable laughter, tearfulness, or anger had affected the quality of their relationships with others during the past week. Each scale required less than one minute to complete. The subjects recorded episodes of pathological laughing and crying in a diary daily.
An analysis of secondary efficacy data was conducted.

[5] = ITT population, mean of scores on Day 15 and Day 29 minus baseline (Day 1) score
[6] = ITT population, diary, weighted by days in the study
[7] = proportional-variance (constant dispersion) negative binomial model
[8] = quadratic-variance (mean dispersion) negative binomial model

## COc1ccc2c(c1)[C@]13CCCCC1[C@H](C2)N(C)CC3 (single isomer, unassigned; (+)) [Dextromethorphan, (+)-3-methoxy-N-methylmorphinan]
[1]
  concentration of DM in plasma, Max: 15.81
  concentration of DM in plasma, Mean: 5.18
  concentration of DM in plasma, Median: 4.55
  concentration of DM in plasma, Min: 0.35
[2]; Efficacy Evaluable Population (n = 101)
  Difference vs 30DM/30Q, mean difference in the CNS-LS reduction: −3.78
[2]; ITT Population (n = 125)
  Difference vs 30DM/30Q, mean difference in the CNS-LS reduction: −3.29
[2]; [5]
  Change in CNS-LS scores, Max: 2.0
  Change in CNS-LS scores, Mean: −5.12
  Change in CNS-LS scores, Median: −4.50
  Change in CNS-LS scores, Min: −25.00
[2]; Safety Population (n = 136)
  Difference vs 30DM/30Q, mean difference in the CNS-LS reduction: −3.09
[3]; DM/Q MTD 30 mg
  Concentration in plasma, Mean: 59.0 ng/mL
  Concentration in plasma, Median: 67.4 ng/mL
[3]; DM/Q MTD 60 mg
  Concentration in plasma, Mean: 46.2 ng/mL
  Concentration in plasma, Median: 1.5 ng/mL
[3]; DM/Q MTD 90 mg
  Concentration in plasma, Mean: 117.0 ng/mL
  Concentration in plasma, Median: 117.0 ng/mL
[3]; DM/Q MTD 120 mg
  Concentration in plasma, Mean: 192.6 ng/mL
  Concentration in plasma, Median: 178.0 ng/mL
[3]; Total, all MTDs
  Concentration in plasma, Mean: 153.7 ng/mL
  Concentration in plasma, Median: 144.5 ng/mL
[3]; poor metabolizer (MTD of 60 mg)
  Concentration in plasma: 126.4 ng/mL
[4]; ITT population, diary
  Weekly episode counts, Crying, Max: 21.00
  Weekly episode counts, Crying, Median: 0.70
  Weekly episode counts, Crying, Min: 0.00
  Weekly episode counts, Laughing, Max: 726.55
  Weekly episode counts, Laughing, Median: 2.50
  Weekly episode counts, Laughing, Min: 0.00
  Weekly episode counts, Laughing/Crying, Max: 726.55
  Weekly episode counts, Laughing/Crying, Median: 8.97
  Weekly episode counts, Laughing/Crying, Min: 0.00
[4]; [6]
  Weekly episode counts, Crying, Wtd. Mean: 4.30
  Weekly episode counts, Laughing, Wtd. Mean: 35.29
  Weekly episode counts, Laughing/Crying, Wtd. Mean: 39.58
[4]; Poisson regression model with adjustment for center
  Total episodes, times greater than in the 30DM/30Q group: 6.4
[4]; Poisson regression model, outlier omitted
  Total episodes, ratio to the 30DM/30Q group: 2.3
[4]; [7]
  Crying, estimated ratio relative to the named group: 2.0
  Laughing, estimated ratio relative to the named group: 1.4
  Total counts, estimated ratio relative to the named group: 1.7
[4]; proportional-variance negative binomial model, outlier subject omitted
  Laughing, estimated ratio relative to the named group: 1.5
[4]; [8]
  Crying rates, factor between 30DM/30Q and the named group: twice
  Laughing rates, factor between 30DM/30Q and the named group: 2.6
  Total episode rates, factor between 30DM/30Q and the named group: 2.6
